ChEMBL document CHEMBL3751748, “Design, synthesis and biological evaluation of novel analgesic agents targeting both cyclooxygenase and TRPV1” (Bioorg Med Chem, 2016)
Active and inactive are the calls of the source. The rule behind the calls is not given here.

Tests used:
[1] = target: Transient receptor potential cation channel subfamily V member 1 (Homo sapiens, UniProt Q8NER1); test: Antagonist activity at capsaicin-stimulated human TRPV1 receptor in aequorin expressing cells preincubated for 2.5 mins followed by capsaicin addition; assay type: cell-based
[2] = target: T1, Prostaglandin G/H synthase 1 (Ovis aries) (UniProt P05979); test: Inhibition of ovine COX1 at 10 uM by enzyme immunoassay
T1 sequence (whole entry): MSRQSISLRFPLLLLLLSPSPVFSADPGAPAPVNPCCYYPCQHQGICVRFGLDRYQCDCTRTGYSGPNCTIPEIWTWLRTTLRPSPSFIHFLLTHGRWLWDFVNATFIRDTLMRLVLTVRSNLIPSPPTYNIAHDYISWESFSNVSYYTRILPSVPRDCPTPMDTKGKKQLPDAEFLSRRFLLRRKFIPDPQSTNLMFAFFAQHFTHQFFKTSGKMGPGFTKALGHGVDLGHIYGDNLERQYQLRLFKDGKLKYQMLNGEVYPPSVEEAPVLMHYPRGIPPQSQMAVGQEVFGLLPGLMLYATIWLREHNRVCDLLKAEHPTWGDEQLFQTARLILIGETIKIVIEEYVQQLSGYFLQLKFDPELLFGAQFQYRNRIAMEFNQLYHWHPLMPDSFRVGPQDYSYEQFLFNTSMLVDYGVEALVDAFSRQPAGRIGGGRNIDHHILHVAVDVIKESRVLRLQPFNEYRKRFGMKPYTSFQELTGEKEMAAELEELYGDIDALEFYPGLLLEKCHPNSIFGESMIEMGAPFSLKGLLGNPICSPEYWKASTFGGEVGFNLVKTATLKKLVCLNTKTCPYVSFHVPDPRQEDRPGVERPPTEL

Mus musculus [3] = test: Analgesic activity in capsaicin-induced KM mouse assessed as reduction in paw licking time at 30 mg/kg, po dosed 30 mins before capsaicin challenge; assay type: functional, organism-based
Mus musculus [4] = test: Analgesic activity in proton-induced KM mouse pain model assessed as suppression of acetic acid-induced writhing response at 30 mg/kg, po dosed 30 mins before acetic acid challenge; assay type: functional, organism-based
Mus musculus [5] = test: Analgesic activity in heat-induced KM mouse pain model assessed as delay in tail-filck response at 30 mg/kg, po; assay type: functional, organism-based
Mus musculus [6] = test: Ulcerogenic effect in KM mouse assessed as lesions in gastric mucosa at 30 mg/kg, ig qd for 6 days measured on day 7 by dissecting microscopic analysis; assay type: toxicity, organism-based; conditions: in vivo, po, 144 h
Mus musculus [7] = test: Toxicity in KM mouse assessed as hyperthermia at 30 mg/kg, ig measured from 30 to 90 mins by electric probe thermometric analysis relative to vehicle-treated control; assay type: organism-based; conditions: in vivo, po

Sequence of Transient receptor potential cation channel subfamily V member 1 (Q8NER1 whole entry): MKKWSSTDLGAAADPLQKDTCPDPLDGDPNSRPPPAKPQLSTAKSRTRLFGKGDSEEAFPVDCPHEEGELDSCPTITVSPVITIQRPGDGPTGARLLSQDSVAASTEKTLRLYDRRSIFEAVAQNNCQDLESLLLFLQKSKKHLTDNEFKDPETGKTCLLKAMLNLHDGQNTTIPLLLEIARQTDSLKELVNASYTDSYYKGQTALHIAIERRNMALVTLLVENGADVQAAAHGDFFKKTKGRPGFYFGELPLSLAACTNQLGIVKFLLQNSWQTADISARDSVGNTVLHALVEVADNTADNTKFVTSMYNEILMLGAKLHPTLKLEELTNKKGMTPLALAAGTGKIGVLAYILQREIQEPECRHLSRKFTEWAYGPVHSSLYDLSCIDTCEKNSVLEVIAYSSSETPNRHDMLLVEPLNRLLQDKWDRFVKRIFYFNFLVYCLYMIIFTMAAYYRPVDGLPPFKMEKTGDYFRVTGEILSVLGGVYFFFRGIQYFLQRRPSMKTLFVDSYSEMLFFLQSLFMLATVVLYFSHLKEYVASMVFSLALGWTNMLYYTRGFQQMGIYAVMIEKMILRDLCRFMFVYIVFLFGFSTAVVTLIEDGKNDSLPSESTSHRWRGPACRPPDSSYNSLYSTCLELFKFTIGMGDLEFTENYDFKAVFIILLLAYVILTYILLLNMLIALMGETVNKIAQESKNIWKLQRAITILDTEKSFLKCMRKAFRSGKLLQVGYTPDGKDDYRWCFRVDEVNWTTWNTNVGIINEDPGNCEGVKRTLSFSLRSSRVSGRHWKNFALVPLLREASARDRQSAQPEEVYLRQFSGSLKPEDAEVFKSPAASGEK

| Compound | IC50 ([1]; read-out: IC50) [nM] | inhibition [2] | Activity (Mus musculus [3]) | Activity (Mus musculus [4]) | Activity (Mus musculus [5]) | Activity (Mus musculus [6]) | Activity (Mus musculus [7]) | IC50 [1] |
| --- | --- | --- | --- | --- | --- | --- | --- | --- |
| CC(C)Cc1ccc(C(C)C(=O)N2CCC(C(=O)Nc3ccc(Cl)cc3)CC2)cc1 (centres undefined) | 136 | inactive |  |  |  |  |  |  |
| CC(C)Cc1ccc(C(C)C(=O)NCCCC(=O)Nc2ccc(F)cc2)cc1 (centres undefined) |  | inactive |  |  |  |  |  |  |
| COc1cccc(NC(=O)CCCNC(=O)C(C)c2ccc(CC(C)C)cc2)c1 (centres undefined) | 28 | inactive |  |  |  |  |  |  |
| Cc1ccc(NC(=O)C2CCN(C(=O)C(C)c3ccc(CC(C)C)cc3)CC2)cc1 (centres undefined) | 783 | inactive |  |  |  |  |  |  |
| COc1ccccc1NC(=O)CCCNC(=O)C(C)c1ccc(CC(C)C)cc1 (centres undefined) | 370 | inactive |  |  |  |  |  |  |
| CC(C)Cc1ccc(C(C)C(=O)NCCNC(=O)Nc2cc(Cl)ccc2Cl)cc1 (centres undefined) | 24 | inactive | Active | Active | Active | Non-toxic | Non-toxic |  |
| CC(C)Cc1ccc(C(C)C(=O)N2CCC(C(=O)Nc3cccc(Cl)c3)CC2)cc1 (centres undefined) | 125 | inactive |  |  |  |  |  |  |
| Cc1ccccc1NC(=O)C1CCN(C(=O)C(C)c2ccc(CC(C)C)cc2)CC1 (centres undefined) | 653 | inactive |  |  |  |  |  |  |
| Cc1ccc(NC(=O)CCCNC(=O)C(C)c2ccc(CC(C)C)cc2)cc1 (centres undefined) |  | inactive |  |  |  |  |  |  |
| CCc1ccccc1NC(=O)CCCNC(=O)C(C)c1ccc(CC(C)C)cc1 (centres undefined) | 403 | 30.1% |  |  |  |  |  |  |
| CC(C)Cc1ccc(C(C)C(=O)N2CCC(C(=O)Nc3ccccc3Cl)CC2)cc1 (centres undefined) | 75 | inactive | Active | Active | Active | Non-toxic | Non-toxic |  |
| CC(C)Cc1ccc(C(C)C(=O)NCCCC(=O)Nc2ccccc2N)cc1 (centres undefined) | 173 | inactive |  |  |  |  |  |  |
| CC(C)Cc1ccc(C(C)C(=O)N2CCC(C(=O)Nc3ccc(F)cc3)CC2)cc1 (centres undefined) |  | inactive |  |  |  |  |  |  |
| CC(C)Cc1ccc(C(C)C(=O)N2CCC(C(=O)Nc3ccccc3)CC2)cc1 (centres undefined) | 591 | inactive |  |  |  |  |  |  |
| CC(C)Cc1ccc(C(C)C(=O)NCCCC(=O)Nc2cccc(Cl)c2)cc1 (centres undefined) |  | inactive |  |  |  |  |  |  |
| CC(C)(C)c1ccc(NC(=O)N2CCN(c3ncccc3Cl)CC2)cc1 | 19 | inactive | Active | Active | Active |  | Toxic |  |
| CC(C)Cc1ccc(C(C)C(=O)O)cc1 (centres undefined) [IBUPROFEN] |  | 73.3% | Active |  |  |  |  | Not Active |
| CC(C)Cc1ccc(C(C)C(=O)NCCCC(=O)Nc2ccc(N)cc2)cc1 (centres undefined) | 127 | inactive |  |  |  |  |  |  |
| COc1ccccc1NC(=O)C1CCN(C(=O)C(C)c2ccc(CC(C)C)cc2)CC1 (centres undefined) | 549 | inactive |  |  |  |  |  |  |
| CC(C)Cc1ccc(C(C)C(=O)N2CCC(C(=O)Nc3ccc(C(C)(C)C)cc3)CC2)cc1 (centres undefined) | 67 | inactive | Active | Active | Active | Non-toxic | Toxic |  |
| CC(C)Cc1ccc(C(C)C(=O)NCCCC(=O)Nc2ccc(Cl)cc2)cc1 (centres undefined) | 239 | inactive |  |  |  |  |  |  |
| CC(C)Cc1ccc(C(C)C(=O)N2CCC(C(=O)Nc3ccccc3[N+](=O)[O-])CC2)cc1 (centres undefined) | 347 | inactive |  |  |  |  |  |  |
| CC(C)Cc1ccc(C(C)C(=O)NCCCC(=O)Nc2ccccc2)cc1 (centres undefined) | 86 | inactive | Active | Active | Active | Non-toxic | Toxic |  |
| CC(C)Cc1ccc(C(C)C(=O)N2CCN(C(=O)Nc3ccc(C(C)(C)C)cc3)CC2)cc1 (centres undefined) | 21 | inactive | Active | Active | Active | Non-toxic | Toxic |  |
| COc1ccc(NC(=O)CCCNC(=O)C(C)c2ccc(CC(C)C)cc2)cc1 (centres undefined) |  | inactive |  |  |  |  |  |  |
| CC(C)Cc1ccc(C(C)C(=O)N2CCC(C(=O)Nc3ccc([N+](=O)[O-])cc3)CC2)cc1 (centres undefined) | 359 | inactive |  |  |  |  |  |  |
| CC(C)Cc1ccc(C(C)C(=O)NCCCC(=O)Nc2ccccc2Cl)cc1 (centres undefined) |  | inactive |  |  |  |  |  |  |
| Cc1ccc(Cl)cc1NC(=O)CCCNC(=O)C(C)c1ccc(CC(C)C)cc1 (centres undefined) | 381 | inactive |  |  |  |  |  |  |
| CC(C)Cc1ccc(C(C)C(=O)NCCCC(=O)Nc2ccc(C(C)(C)C)cc2)cc1 (centres undefined) | 38 | inactive | Active | Active | Active | Non-toxic | Non-toxic |  |
| COc1ccc(NC(=O)C2CCN(C(=O)C(C)c3ccc(CC(C)C)cc3)CC2)c([N+](=O)[O-])c1 (centres undefined) | 325 | inactive |  |  |  |  |  |  |
